# According to US6461997B1, “Triazole sulfones having herbicidal activity” (Monsanto Technology LLC, priority 1999, dated 2002):
# Key:
# [1] = test system: SOLNI (black nightshade); assay: Pre-emergence herbicidal activity, warm season; format: in vivo, Solanum nigrum; conditions: for Pre-emergence activity (GR80) SOLNI: GR80 = lowest tested rate (300, 100, 30, 10 g/ha) with 80% or greater inhibition, approx. 14 days after treating, 30/21° C.
# Summary of the method: (§1)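 Seeds sown in sterilised fertilised topsoil received surface-applied compound in 50:50 acetone/water, typically at 300, 100, 30 and 10 g/ha, then greenhouse-grown at 30/21° C (warm-season species) or 18/13° C (cool-season species). Percent inhibition versus untreated plants was scored at about 14 days, giving GR80; an asterisk marks activity short of 80% at the top rate.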
# [2] = test system: POROL (common purslane); assay: Pre-emergence herbicidal activity, warm season; format: in vivo, Portulaca oleracea; conditions: GR80 = lowest tested rate (300, 100, 30, 10 g/ha) with 80% or greater inhibition; approx. 14 days after treating; 30/21° C.
# Summary of the method: as §1
# [3] = test system: SINAR (wild mustard); assay: Pre-emergence herbicidal activity, cool season; format: in vivo, Sinapis arvensis; conditions: lowest tested rate with 80% or greater inhibition; rates 300, 100, 30, 10 g/ha; about 14 days
# Summary of the method: as §1
# [4] = test system: VERPE (creeping speedwell); assay: Pre-emergence herbicidal activity, cool season; format: in vivo, Veronica persicaria; conditions: lowest tested rate with 80% or greater inhibition; rates 300, 100, 30, 10 g/ha; about 14 days
# Summary of the method: as §1
# [5] = test system: LAMPU (purple deadnettle); assay: Pre-plant incorporated (PPI) herbicidal activity, cool season; format: in vivo, Lamium purpureum; conditions: for PPI activity GR80, LAMPU: pre-plant incorporated, lowest tested rate with 80% or greater inhibition, about 14 days
# Procedure: (§2) In another set of tests, the pre-plant incorporated (PPI) activity of compounds of this invention was evaluated on the same species as for the pre-emergence tests described above. In the PPI tests the following procedure, designed to simulate PPI application, was used.
# (§3) A pre-prepared topsoil mixture (described above) was placed in a pot and compacted to a depth of 1.0 to 1.25 cm from the top of the pot. Seeds of each of several monocotyledonous and dicotyledonous annual plant species were placed on top of the soil. A sufficient quantity of soil to cover the seeds and level fill the pot was weighed into an open container. A known amount of the test compound was dissolved or suspended in an organic solvent and applied by spraying to this cover soil. The cover soil was thoroughly mixed to distribute the test compound throughout the cover soil, and was then applied as a cover layer over the seeds. Untreated soil was used as a cover layer for control pots. After treatment the plants were placed in a greenhouse where they received 0.64 cm of overhead irrigation. All subsequent watering consisted of a light overhead mist and/or subirrigation as needed for germination and growth. Tables 9 and 10 below relate to warm season plant species which were placed after pre-emergence treatment in a greenhouse with a 30/21° C. day/night temperature regime. Tables 11 and 12 below relates to cool season plant species placed after pre-emergence treatment in a greenhouse or growth chamber with an 18/13° C. day/night temperature regime. Only the compounds of Examples 1, 6, 8, 11, 13 and 15-20 were included in PPI tests.
# (§4) Approximately 14 days after planting and treating, the plants were observed and herbicidal efficacy recorded as percent inhibition by comparison with untreated plants.
# [6] = test system: AGRRE (quackgrass (seedling)); assay: as above; format: in vivo, Elymus repens; conditions: for inhibition at 10 g/ha / inhibition at 30 g/ha / inhibition at 100 g/ha / inhibition at 300 g/ha / inhibition at 900 g/ha: Elymus repens, weed, PPI application, read-out: Percent inhibition AGRRE; for PPI activity GR80, AGRRE: pre-plant incorporated, lowest tested rate with 80% or greater inhibition, about 14 days
# Procedure: as §2, §3, §4
# [7] = test system: SETVI (green foxtail); assay: Post-emergence herbicidal activity, cool season; format: in vivo, Setaria viridis; conditions: abraded plants sprayed at 300, 100, 30 and 10 g/ha; about 14 days after treatment
# Summary of the method: (§5)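 Seedlings grown from seed in topsoil pots were treated 9 to 14 days after planting, foliage first abraded with garnet particles, then sprayed with test compound in 50:50 acetone/water at 300, 100, 30 and 10 g/ha (3,100 l/ha). Kept at 18/13° C. day/night, percent inhibition versus abraded unsprayed controls was scored about 14 days later and GR80 assigned.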
# [8] = test system: AEGCY (jointed goatgrass); assay: Post-emergence herbicidal activity, cool season; format: in vivo, Aegilops cylindrica; conditions: abraded plants sprayed at 300, 100, 30 and 10 g/ha; about 14 days after treatment
# Summary of the method: as §5
# [9] = test system: AGSST (creeping bentgrass); assay: Post-emergence herbicidal activity, cool season; format: in vivo, Agrostis stolonifera; conditions: abraded plants sprayed at 300, 100, 30 and 10 g/ha; about 14 days after treatment
# Summary of the method: as §5
# [10] = test system: PANDI (fall panicum); assay: Pre-plant incorporated (PPI) herbicidal activity, warm season; format: in vivo, Panicum dichotomiflorum; conditions: pre-plant incorporated; lowest tested rate with 80% or greater inhibition; about 14 days
# Procedure: as §2, §3, §4
# [11] = Lamium purpureum, weed, PPI application, read-out: Percent inhibition LAMPU
SMILES,Pre-emergence activity (GR80) SOLNI [1] [g/ha],Pre-emergence activity (GR80) POROL [2] [g/ha],"Pre-emergence activity GR80, SINAR [3] [g/ha]","Pre-emergence activity GR80, VERPE [4] [g/ha]","inhibition at 10 g/ha [5, 11] [%]","inhibition at 30 g/ha [5, 11] [%]","inhibition at 300 g/ha [5, 11] [%]","inhibition at 900 g/ha [5, 11] [%]","PPI activity GR80, LAMPU [5] [g/ha]",inhibition at 10 g/ha [6] [%],inhibition at 30 g/ha [6] [%],inhibition at 100 g/ha [6] [%],inhibition at 300 g/ha [6] [%],inhibition at 900 g/ha [6] [%],"PPI activity GR80, AGRRE [6] [g/ha]","Post-emergence activity GR80, SETVI [7]","Post-emergence activity GR80, AEGCY [8]","Post-emergence activity GR80, AGSST [9]","PPI activity GR80, PANDI [10] [g/ha]",other results
C=C(Br)CC(F)(F)S(=O)(=O)c1ncn(C(=O)N(CC)CC)n1 [Example 19],300,300,30,300,0,0,0,99,100,0,0,10,20,80,100,[empty],[empty],[empty],–,–
"C=CCC(F)(F)S(=O)(=O)c1ncn(C(=O)N(CC)CC)n1 [Example 17, 1-(N,N-diethylcarbamoyl)-3-[(1,1-difluoro-3-butenyl)sulfonyl]-1,2,4-triazole]",100,300,100,100,100,100,100,100,30,0,40,50,60,70,100,[empty],[empty],300 g/ha,300,"inhibition at 100 g/ha ([5]; Lamium purpureum, weed, PPI application, 100 g/ha, read-out: Percent inhibition LAMPU): 100%"
C=C(C)CC(F)(F)S(=O)(=O)c1ncn(C(=O)N(CC)CC)n1 [Example 18],100,100,300,300,0,0,0,70,10,0,30,20,20,80,100,[empty],[empty],[empty],–,–
"CCN(CC)C(=O)n1cnc(S(=O)(=O)C(F)F)n1 [Example 15, 1-(N,N-diethylcarbamoyl)-3-(difluoromethylsulfonyl)-1,2,4-triazole]",100,100,–,–,–,–,–,–,300,–,–,–,–,–,300,[empty],[empty],[empty],100,"inhibition at 10 g/ha ([1]; Solanum nigrum, pre-emergence application, 10 g/ha, read-out: Percent inhibition, weed SOLNI): 0%; inhibition at 30 g/ha ([1]; Solanum nigrum, pre-emergence application, 30 g/ha, read-out: Percent inhibition, weed SOLNI): 0%; inhibition at 100 g/ha ([1]; Solanum nigrum, pre-emergence application, 100 g/ha, read-out: Percent inhibition, weed SOLNI): 0%; inhibition at 300 g/ha ([1]; Solanum nigrum, pre-emergence application, 300 g/ha, read-out: Percent inhibition, weed SOLNI): 0%; inhibition at 900 g/ha ([1]; Solanum nigrum, pre-emergence application, 900 g/ha, read-out: Percent inhibition, weed SOLNI): 0%"
